Patent US20230097801A1, “METHODS OF INCREASING CELL PHAGOCYTOSIS” (National Health Research Institutes, priority 2021, published 2023)
pIC50: −log10 of the molar value. “Also recorded” adds a separate entry of the source.

Assays:
[1] = test system: CD47; assay: Flow cytometry, anti-human CD47 CC2C6 antibody binding on DLD-1 cell surface; assay type: cell-based
Experimental: (§1) Binding between CD47 and SIRPα was studied by measuring the level of CD47 binding using any suitable method. Flow cytometric analysis is useful to quantify the level of binding of CD47 to antibody CC2C6, which is then subjected to an immune-staining procedure using fluorochrome-conjugated secondary antibody followed by analysis of the immune-staining signal with a flow cytometry instrument to obtain the level of the CD47-CC2C6 binding. In another method, analysis of CD47 is performed using SIRPα-Fc formed from SIRPα fused with human IgG1, which is then subjected to an immune-staining procedure using fluorochrome-conjugated secondary antibody against human IgG1, followed by analysis of the immune-staining signal. SIRPα is expressed on the surface of a myeloid cell such as macrophage, monocyte, neutrophil, or dendritic cell. Alternatively, SIRPα is fused with human IgG1 to form a SIRPα-Fc recombinant protein. […] An anti-cancer agent (e.g., rituximab) can be used together with a compound of formula (I). Useful anti-cancer agents are described above including anti-PD-L1 antibodies, anti-CD20 antibodies, anti-HER2 antibodies, anti-EGFR antibodies, and anti-CD47 antibodies. Other suitable anti-cancer agents are chemotherapeutic agents such as doxorubicin, epirubicin, idarubicin, methotrexate, mitoxantrone, oxaliplatin, and cyclophosphamide.
Human colon cancer DLD-1 cells were obtained from NHRI IBPR HTS Lab, Taiwan. DLD-1 cells were maintained under the same conditions described immediately above.
(§2) Antibody conjugates and extracellular domain of SIRPα used to analyze cell surface CD47 binding include anti-human CD47 CC2C6, 2D3, recombinant human SIRPα/CD172a Fc chimer protein, and anti-human IgG Fc. To determine inhibition of CD47 binding, cancer cells were treated with compounds of formula (I) at various concentrations for 4 days. Thereafter, the cells were washed with PBS containing 0.5% BSA (FACS buffer) followed by incubation with fluorochrome-labeled antibodies to human CD47 (i.e., CC2C6 and 2D3) at 1:50 dilution in FACS buffer for 30 minutes at 4° C. Compounds of formula (I) produced a dose-dependent inhibition of anti-CD47 CC2C6 antibody that recognized CD47 and SIRPα binding site on the tumor cell surface including B-cell lymphoma Raji cells, colon cancer cells DLD-1, and ovarian cancer SK-OV-3 cells (see FIGS. 1A, 1B, and 1C, respectively).

[2] = test system: CD47; assay: Flow cytometry, anti-human CD47 CC2C6 antibody binding on SK-OV-3 cell surface; assay type: cell-based
Experimental: as §1
SK-OV-3 cells were purchased from ATCC (Manassas, Va.). SK-OV-3 cells were maintained at 37° C. under 5% CO2 in McCoy's 5a medium (Gibco, ThermoFisher, Waltham, Mass.) with 10% fetal bovine serum (FBS) (Sigma-Aldrich, St Louis, Mo.), and 2 mM L-glutamine.
as §2

[3] = test system: human B-cell lymphoma Raji xenograft tumor; assay: Raji xenograft anti-tumor efficacy and survival study (3 weeks treatment); assay type: in vivo, NOD/SCID mice; details: Compound 34 100 mg/kg p.o. QD*5, rituximab 10 mg/kg i.p. 2QW
Excerpt: Human B-cell lymphoma Raji cells were used to evaluate the efficacy of Compound 34 and rituximab in treating cancer cells. Prior to injection into animals, the cancer cells were detected as free of Mycoplasma spp. NOD/SCID mice (BioLasco, Taiwan) were used for in vivo experiments due to their higher affinity of SIRPα to human CD47. The mice used in these studies were housed in Institutional Animal Care and Use Committees-approved facility at National Health Research Institutes in accordance with guidelines for the care and use of laboratory animals.
One million Raji cells in culture medium and matrigel (1:1, v/v) were injected subcutaneously into the left flank region of the mice (n=7 to 10 animals per group). Treatments were initiated after randomization with inclusion of tumors at approximately 100 mm^3. A dosing vehicle for Compound 34 was prepared using 10% DMA: 40% PEG400: 50% (1% CMC) (v/v/v) and was dosed orally (p.o.) at 100 mg/kg once a day, 5 days a week (Q.D.*5). Rituximab (Roche-Genentech, South San Francisco, Calif.) stock solution was diluted with PBS and dosed at 10 mg/kg twice a week (2QW) by intraperitoneal (i.p.) injection.
To evaluate anti-tumor efficacy and survival rates, mice were treated with vehicle control, 10 mg/kg rituximab (2QW, i.p.), 100 mg/kg Compound 34 (QD*5), or rituximab in combination with Compound 34. Treatment was discontinued at the end of 3 weeks. The mice were monitored for cancer growth and body weight once a week. Cancer growth was measured by volume with an electronic caliper. The volume was calculated as L×W^2/2, in which L is the length of the tumor and W is its width. Tumor size and animal body weight were measured once a week after cancer cell inoculation. Cancer response at the end of the study was calculated as tumor growth inhibition (TGI) using (1−T/C)*100, in which T is the mean tumor volume (mm^3) of the test group, and C is the mean tumor volume (mm^3) of the vehicle-treated group. […] For the survival study, treatment was discontinued at the end of 3 weeks. Thereafter, mice were followed up for tumor growth and body weight once a week. The mice were then sacrificed when tumor volume reached 2,000 mm^3 or body weight loss was greater than 10%. Kaplan-Meier plots were used as the study end point to calculate percentage of animals remaining in the study in term of the time. The median survival days for vehicle control and Compound 34 were 15.5 days and 18 days, respectively (FIG. 5E). Rituximab prolonged median survival days to 28 days after treatment discontinued (FIGS. 5C and 5E). Importantly, the combination of rituximab and Compound 34 further prolonged median survival days to 47 days (FIGS. 5D and 5E).

[4] = Mouse pk profiles; assay type: in vivo
[5] = test system: CD47; assay: Pharmacodynamic study, CC2C6 binding and total CD47 on Raji xenograft tumor cells; assay type: in vivo, human; details: 100 mg/kg p.o. QD*5, 10 days
Experimental: A pharmacodynamic study was also conducted to evaluate target engagement of Compound 34. In this study, one million Raji cells in culture medium and matrigel (1:1, v/v) were injected subcutaneously into the left flank region of each mouse. Treatments were initiated after randomization with inclusion of tumors at approximately 150 mm^3. A dosing vehicle for Compound 34 was prepared using 10% DMA: 40% PEG400: 50% (1% CMC) (v/v/v) and was dosed orally (p.o.) at 100 mg/kg once a day and 5 days a week (Q.D.*5). The mice were treated with either the vehicle control or Compound 34 for 10 days. They were then sacrificed 24 hours after the last dose (n=4 per group). Tumors were harvested and isolated into single cell suspensions for flow cytometry analysis. Unexpectedly, Compound 34 reduced 56% of anti-CD47 CC2C6 antibody binding on the tumor cell surface, as indicated by a decreasing level of anti-CC2C6^+ tumor cells in the Compound 34-treated mice as compared to the vehicle-treated mice.

With O=C1NC[C@H](c2ccc(-c3csc(C(F)(F)F)c3)c(F)c2F)N1c1ccc2[nH]cnc2c1 [Compound 34] the pIC50 ([1]; Colon Cancer (DLD-1 cells), 4 days treatment, read-out: IC50, inhibition of CC2C6 binding) was 6.24, the “inhibition of binding of anti-human CD47 antibody CC2C6 (in words)” value ([1]; DLD-1 cells) was “effectively inhibited” and the pIC50 ([2]; Ovarian Cancer (SK-OV3 cells), 4 days treatment, read-out: IC50, inhibition of CC2C6 binding) was 6.72. For the same compound, the “inhibition of binding of anti-human CD47 antibody CC2C6 (in words)” value ([2]; SK-OV-3 cells) was “effectively inhibited”, the “tumor growth inhibition (TGI, % of control)” value ([3]; 3 weeks) was 41.4% and the median survival days ([3]; treatment discontinued at 3 weeks) was 18 days. The “AUC Plasma” value ([4]; IV (2 mg/kg)) was 8869 ng·h/g, the “AUC Plasma” value ([4]; PO (30 mg/kg)) was 56451 ng·h/g and the clearance ([4]; plasma, IV (2 mg/kg)) was 4.6 mL/min/kg. The Cmax ([4]; plasma, PO (30 mg/kg)) was 1980 ng/mL, the bioavailability ([4]; plasma, PO (30 mg/kg) vs IV (2 mg/kg)) was 43% and the half-life ([4]; plasma, PO (30 mg/kg), read-out: T1/2 (h) Plasma (converted)) was 9.3 h. The “total CD47 expression level on the tumor cell surface” value [5] was “did not affect a total CD47 expression level; also recorded: without affecting a total CD47 expression level”.
